# According to US20110111976A1, “MICRORNA BIOMARKERS OF TISSUE INJURY” (priority 2008, published 2011):
# Values joined by “and” are separate entries in the source; they are usually repeats but may differ in a detail not shown here. Identical values can stand only once.
# Legend:
# [1] = system: Sprague-Dawley rats; assay: Pooled sample study: miR-122 in blood plasma of toxicant-treated rats by qPCR; format: in vivo; conditions: pooled rat plasma (5 samples), cerivastatin 1.0 mg/kg/day oral Day 14, CBrCl3 0.1 ml/kg oral Days 2 & 4, TMPD 6 mg/kg bid s.c. Day 3; for miR-122 Copies / miR-122 Ct Mean: 250 ng total RNA input
# Protocol: (§1) To explore the feasibility of detecting miRNA tissue injury biomarkers in plasma, a pilot study was performed in which pooled blood plasma samples from rat toxicology studies were analyzed using a qPCR-based assay (Raymond et at, 2005, RNA 11:1737; WO 2006/081282). The miRNAs miR-122 and miR-133 were chosen for quantification because they are extremely abundant and specific to liver and muscle, respectively (FIG. 1). Stored plasma samples from rats that had previously been treated with a liver damaging agent trichlorobromomethane (CBrCl3) or with one of two muscle damaging agents 2,3,5,6-tetramethyl-p phenylenediamine (TMPD) or cerivastatin) were assayed form miRNA levels using qPCR.
# (§2) Animals Male and female Sprague-Dawley rats were obtained from Charles River Laboratories, Inc. (Raleigh, N.C.). The rats were approximately seven to eight weeks of age and weighed from 125 to 325 grams at the start of the study. The animals were acclimated for approximately one week and randomized into treatment and control groups. During the toxicity studies targeting liver, the animals were maintained on a caloric-restricted diet, and fasted overnight prior to necropsy. Doses were different for each model compound tested and were calculated based on animal body weight. For the compounds, routes of administration, dose groups, and time points, see the below compound section.
# (§3) Skeletal Muscle Toxicant • 2,3,5,6-tetramethyl-p phenylenediamine (TMPD) • Doses: 6 mg/kg bid • Dosing: 0.9% NaCl by subcutaneous injection • Animals: Sprague Dawley Male Rats • Time Points Day 3, TMPD Plasma (Day 3) and Controls (5 samples, 100 ul each pooled=500 ul total).
# (§4) Liver Toxicant • Trichlorbromomethane (CCl3Br) • Doses: 0.1 ml/kg • Dosing: 100% liquid paraffin by oral gavage • Animals: Sprague Dawley Male Rats • Time Point: Day 2, 4 CCl3Br Plasma (Days 2 & 4) and Controls (5 samples, 100 ul each pooled=500 ul total)
# (§5) Liver and Muscle Toxicant • Cerivastatin • Doses: 1.0 mg/kg/day • Dosing: 0.5% methylcellulose by oral gavage • Animals: Sprague Dawley Female Rats • Time Point Day 14 Cerivastatin Plasma (Day 14) and Controls (5 samples, 100 ul each pooled=500 μl total)
# (§6) Plasma Samples All plasma samples were collected in EDTA tubes at final necropsy from the vena cava. Samples were inverted several times, and centrifuged for 20 minutes at 2,900 RPM at 4° C. Plasma samples were removed and stored at −70° C. Pooled blood plasma samples from rat toxicology studies were analyzed using a qPCR-based assay (Raymond et al, 2005, RNA 11:1737; WO 2006/081282). Control slope and intercept values for miR-122 and miR-133 were calculated from a concentration series of each microRNA added to total yeast RNA and then analyzed using the qPCR assay for each miRNA. The slope and intercept values from the standard curve were used to calculate the amount of each respective miRNA in each sample expressed as the number of miRNA copies per 20 ng of total RNA in each sample. Cycle threshold values (Ct) for each sample were converted to miRNA copy numbers by comparison to standard curves generated using single stranded mature miRNAs and are expressed as copies/20 pg input RNA (approximately equivalent to copies/cell).
# [2] = system: Sprague-Dawley rats; assay: Pooled sample study: miR-133 in blood plasma of toxicant-treated rats by qPCR; format: in vivo; conditions: pooled rat plasma (5 samples), cerivastatin 1.0 mg/kg/day oral Day 14, CBrCl3 0.1 ml/kg oral Days 2 & 4, TMPD 6 mg/kg bid s.c. Day 3; for miR-133 Copies / miR-133 Ct Mean: 250 ng total RNA input
# Protocol: as §1, §2, §3, §4, §5, §6
# [3] = system: Sprague-Dawley rats; assay: Individual sample study: miR-122 in blood plasma of toxicant-treated rats by qPCR; format: in vivo, rat; conditions: individual male rats
# Protocol: (§7) To follow up on the initial results shown in Example 2, blood samples from 44 individual rats that had been treated with varying doses of CBrCl3, CCl4 (another liver toxicant), or TMPD were evaluated using qPCR of miR-122 and miR-133. In addition, data from histopathology and a panel of standard biomarkers (ALT, AST, CK, skTnI, etc.) were also available for these same individual rats and were used to compare the results from microRNA assays with the standard histopathology and protein biomarkers.
# as §2
# (§8) Skeletal Muscle Toxicant • 2,3,5,6-tetramethyl-p phenylenediamine (TMPD) • Doses: 2, 4 mg/kg bid • Dosing: 0.9% NaCl by subcutaneous injection • Animals: Sprague Dawley Male Rats • Time Points: TMPD Plasma (Day 2) and Controls (5 samples per group, […] pooled=500 μl total).
# (§9) Liver Toxicant • Trichlorobromomethane (CCl3Br) • Doses: 0.03, 0.1 ml/kg • Dosing: 100% liquid paraffin by oral gavage • Animals: Sprague Dawley Male Rats • Time Point: CCl3Br Plasma (Days 2 & 4) and Controls (4 controls, 3 samples per group, 100 μl each) • Carbon Tetrachloride (CCl4) • Doses: 0.03, 0.1, 0.3 ml/kg • Dosing: 100% liquid paraffin by oral gavage • Animals: Sprague Dawley Male Rats • Time Point: CCl4 Plasma (Days 2) and Controls (4 samples per group, 100 μl each)
# as §6, with “are expressed in Table 4 as copies/20” for “are expressed as copies/20”
# [4] = system: Sprague-Dawley rats; assay: Individual sample study: miR-133 in blood plasma of toxicant-treated rats by qPCR; format: in vivo, rat; conditions: individual male rats
# Protocol: as §7, §2, §8, §9
# as §6, with “are expressed in Table 4 as copies/20” for “are expressed as copies/20”
# [5] = system: Sprague-Dawley rats; assay: Clinical chemistry (AST, ALT, CK) in blood plasma of toxicant-treated rats; format: in vivo, rat; conditions: individual male rats
# Protocol: as §7, §2, §8, §9
# [6] = system: Sprague-Dawley rats; assay: Liver histopathology scores of toxicant-treated rats; format: in vivo, rat; parameters: key to Liver Histopathology Scores: Vacuolation / Liver Histopathology Scores: Necrosis / Liver Histopathology Scores: Degeneration / Liver Histopathology Scores: Inflammation / Liver Histopathology Scores: Mitotic Index: 1 = very slight; 2 = slight or small; 3 = moderate; 4 = marked; 5 = severe tissue injury
# Protocol: as §7, §2, §9
# [7] = CBrCl3 0.03 mL/kg oral gavage, Day 2, plasma
# [8] = CBrCl3 0.03 mL/kg oral gavage, Day 4, plasma
# [9] = CBrCl3 0.1 mL/kg oral gavage, Day 4, plasma
# [10] = CBrCl3 0.03 mL/kg oral gavage, Day 2, individual male rats
# [11] = CBrCl3 0.03 mL/kg oral gavage, Day 4, individual male rats
# [12] = CBrCl3 0.1 mL/kg oral gavage, Day 4, individual male rats
# [13] = CCl4 0.03 ml/kg oral gavage, Day 2, plasma
# [14] = CCl4 0.1 mL/kg oral gavage, Day 2, plasma
# [15] = CCl4 0.3 mL/kg oral gavage, Day 2, plasma
# [16] = CCl4 0.03 ml/kg oral gavage, Day 2, individual male rats
# [17] = CCl4 0.1 mL/kg oral gavage, Day 2, individual male rats
# [18] = CCl4 0.3 mL/kg oral gavage, Day 2, individual male rats
compound,measurement,setting,value
"ClC(Cl)(Cl)Br [CBrCl3, trichlorobromomethane]",miR-122 Copies,[1],8.8E+08
same,miR-122 Ct Mean,[1],12.6961
same,miR-122 Copies/20 pg,[1],70674.9 Copies/20 pg
same,miR-133 Copies,[2],85617.9
same,miR-133 Ct Mean,[2],29.6296
same,miR-133 Copies/20 pg,[2],6.8 Copies/20 pg
same,miR-122,[3]; [7],860.8 copies/20 pg input RNA and 45.1 copies/20 pg input RNA and 47.3 copies/20 pg input RNA
same,miR-122,[3]; [8],90.2 copies/20 pg input RNA and 56.2 copies/20 pg input RNA and 20.5 copies/20 pg input RNA
same,miR-122,[3]; [9],4049.2 copies/20 pg input RNA and 335.5 copies/20 pg input RNA and 304.0 copies/20 pg input RNA
same,miR-133,[4]; [7],0.7 copies/20 pg input RNA and 0.2 copies/20 pg input RNA and 0.4 copies/20 pg input RNA
same,miR-133,[4]; [8],1.2 copies/20 pg input RNA and 2.0 copies/20 pg input RNA and 0.3 copies/20 pg input RNA
same,miR-133,[4]; [9],0.8 copies/20 pg input RNA and 0.4 copies/20 pg input RNA (2×)
same,ALT,[5]; [7],142 Unit and 36 Unit (2×)
same,AST,[5]; [7],366 Unit and 83 Unit and 93 Unit
same,ALT,[5]; [8],34 Unit and 43 Unit and 32 Unit
same,AST,[5]; [8],138 Unit and 118 Unit and 108 Unit
same,ALT,[5]; [9],1388 Unit and 191 Unit and 223 Unit
same,AST,[5]; [9],1543 Unit and 370 Unit and 519 Unit
same,Liver Histopathology Scores: Degeneration,[6]; [10],2 and 0 and 1
same,Liver Histopathology Scores: Inflammation,[6]; [10],1 (2×) and 0
same,Liver Histopathology Scores: Mitotic Index,[6]; [10],0
same,Liver Histopathology Scores: Necrosis,[6]; [10],1 and 0 (2×)
same,Liver Histopathology Scores: Degeneration,[6]; [11],0 and 1 (2×)
same,Liver Histopathology Scores: Inflammation,[6]; [11],0
same,Liver Histopathology Scores: Mitotic Index,[6]; [11],0
same,Liver Histopathology Scores: Necrosis,[6]; [11],0
same,Liver Histopathology Scores: Degeneration,[6]; [12],2 and 1 (2×)
same,Liver Histopathology Scores: Inflammation,[6]; [12],2
same,Liver Histopathology Scores: Mitotic Index,[6]; [12],1 (2×) and 2
same,Liver Histopathology Scores: Necrosis,[6]; [12],3 and 1 (2×)
"ClC(Cl)(Cl)Cl [CCl4, Carbon Tetrachloride]",miR-122,[3]; [13],2.4 copies/20 pg input RNA and 5.5 copies/20 pg input RNA and 8.7 copies/20 pg input RNA and 10.0 copies/20 pg input RNA
same,miR-122,[3]; [14],7.9 copies/20 pg input RNA and 107.4 copies/20 pg input RNA and 14.3 copies/20 pg input RNA and 119.4 copies/20 pg input RNA
same,miR-122,[3]; [15],1563.6 copies/20 pg input RNA and 194.3 copies/20 pg input RNA and 191.4 copies/20 pg input RNA and 164.6 copies/20 pg input RNA
same,miR-133,[4]; [13],0.3 copies/20 pg input RNA (2×) and 0.5 copies/20 pg input RNA and 1.0 copies/20 pg input RNA
same,miR-133,[4]; [14],0.3 copies/20 pg input RNA (2×) and 0.4 copies/20 pg input RNA (2×)
same,miR-133,[4]; [15],1.4 copies/20 pg input RNA and 0.4 copies/20 pg input RNA and 0.3 copies/20 pg input RNA and 0.1 copies/20 pg input RNA
same,ALT,[5]; [13],25 Unit (3×) and 20 Unit
same,AST,[5]; [13],92 Unit and 88 Unit and 76 Unit and 84 Unit
same,ALT,[5]; [14],25 Unit and 40 Unit (2×) and 41 Unit
same,AST,[5]; [14],96 Unit and 116 Unit and 102 Unit and 126 Unit
same,ALT,[5]; [15],87 Unit and 77 Unit and 62 Unit and 56 Unit
same,AST,[5]; [15],345 Unit and 216 Unit and 157 Unit and 225 Unit
same,Liver Histopathology Scores: Degeneration,[6]; [16],0
same,Liver Histopathology Scores: Inflammation,[6]; [16],0
same,Liver Histopathology Scores: Necrosis,[6]; [16],0
same,Liver Histopathology Scores: Vacuolation,[6]; [16],0
same,Liver Histopathology Scores: Degeneration,[6]; [17],0 (2×) and 1 (2×)
same,Liver Histopathology Scores: Inflammation,[6]; [17],0 (2×) and 2 and 1
same,Liver Histopathology Scores: Necrosis,[6]; [17],0 (2×) and 1 (2×)
same,Liver Histopathology Scores: Vacuolation,[6]; [17],0 and 1 (3×)
same,Liver Histopathology Scores: Degeneration,[6]; [18],2
same,Liver Histopathology Scores: Inflammation,[6]; [18],2 (3×) and 1
same,Liver Histopathology Scores: Necrosis,[6]; [18],1
same,Liver Histopathology Scores: Vacuolation,[6]; [18],0
COCc1c(C(C)C)nc(C(C)C)c(/C=C/[C@@H](O)C[C@@H](O)CC(=O)O)c1-c1ccc(F)cc1 [Cerivastatin],miR-122 Copies,[1],353217
same,miR-122 Ct Mean,[1],24.2231
same,miR-122 Copies/20 pg,[1],28.3 Copies/20 pg
same,miR-133 Copies,[2],7279643
same,miR-133 Ct Mean,[2],23.1065
same,miR-133 Copies/20 pg,[2],582.4 Copies/20 pg
